Data: PubChem BioAssay (NCI)
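Tested at 5 concentrations; 48 h exposure; 96-well plates; endpoints linearly interpolated, else capped at highest concentration. TGI marks complete inhibition of growth.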

Columns and labels:
Assay in all cases: inhibition of tumour cell growth, NCI panel, 48 h
OVCAR-5 ovarian = tested on: OVCAR-5 ovarian
HCC-2998 colon = tested on: HCC-2998 colon
MOLT-4 leukemia = tested on: MOLT-4 leukemia
SK-OV-3 ovarian = tested on: SK-OV-3 ovarian
IGROV1 ovarian = tested on: IGROV1 ovarian
SF-539 CNS = tested on: SF-539 CNS
SK-MEL-5 melanoma = tested on: SK-MEL-5 melanoma
NCI-H226 lung = tested on: NCI-H226 lung
NCI-H23 lung = tested on: NCI-H23 lung
M14 melanoma = tested on: M14 melanoma
A549 NSCLC = tested on: A549 NSCLC
NCI-H522 lung = tested on: NCI-H522 lung
HCT-116 colon = tested on: HCT-116 colon
LOX IMVI melanoma = tested on: LOX IMVI melanoma
CAKI-1 renal = tested on: CAKI-1 renal
OVCAR-8 ovarian = tested on: OVCAR-8 ovarian
SN12C renal = tested on: SN12C renal
SK-MEL-2 melanoma = tested on: SK-MEL-2 melanoma
HT29 colon = tested on: HT29 colon
LXFL 529 NSCLC = tested on: LXFL 529 NSCLC
UACC-62 melanoma = tested on: UACC-62 melanoma
786-0 renal = tested on: 786-0 renal
KM12 colon = tested on: KM12 colon
KM20L2 colon = tested on: KM20L2 colon
HCT-15 colon = tested on: HCT-15 colon
RPMI-8226 leukemia = tested on: RPMI-8226 leukemia
DMS 273 small cell lung = tested on: DMS 273 small cell lung
HL-60(TB) leukemia = tested on: HL-60(TB) leukemia
SNB-78 CNS = tested on: SNB-78 CNS
M19-MEL melanoma = tested on: M19-MEL melanoma
DMS 114 small cell lung = tested on: DMS 114 small cell lung
DLD-1 colon = tested on: DLD-1 colon
SK-MEL-28 melanoma = tested on: SK-MEL-28 melanoma
SF-268 CNS = tested on: SF-268 CNS
SR leukemia = tested on: SR leukemia
A498 renal = tested on: A498 renal
OVCAR-4 ovarian = tested on: OVCAR-4 ovarian
EKVX NSCLC = tested on: EKVX NSCLC
TK-10 renal = tested on: TK-10 renal
SF-295 CNS = tested on: SF-295 CNS
U251 CNS = tested on: U251 CNS
UACC-257 melanoma = tested on: UACC-257 melanoma
K-562 leukemia = tested on: K-562 leukemia
XF 498 CNS = tested on: XF 498 CNS
NCI-H460 lung = tested on: NCI-H460 lung
COLO 205 colon = tested on: COLO 205 colon
HOP-62 NSCLC = tested on: HOP-62 NSCLC
ACHN renal = tested on: ACHN renal
SNB-19 CNS = tested on: SNB-19 CNS
SNB-75 CNS = tested on: SNB-75 CNS
SW-620 colon = tested on: SW-620 colon
UO-31 renal = tested on: UO-31 renal
OVCAR-3 ovarian = tested on: OVCAR-3 ovarian
MALME-3M melanoma = tested on: MALME-3M melanoma
RXF 393 renal = tested on: RXF 393 renal
HOP-18 NSCLC = tested on: HOP-18 NSCLC
RXF-631 renal = tested on: RXF-631 renal
CCRF-CEM leukemia = tested on: CCRF-CEM leukemia
HOP-92 NSCLC = tested on: HOP-92 NSCLC

Measured: TGI

O=C(NCCOC(=O)CCCCCCCCC(=O)OCCNC(=O)NC(=O)c1cn(Cc2ccccc2)c(=O)[nH]c1=O)NC(=O)c1cn(Cc2ccccc2)c(=O)[nH]c1=O
not listed: MALME-3M melanoma | RXF 393 renal | HOP-18 NSCLC | RXF-631 renal | CCRF-CEM leukemia | HOP-92 NSCLC
> 100 µM: all other assays above

CC(C)C(Nc1c2ccccc2[n+](C)c2ccccc12)C(=O)O (configuration not stated)
not listed: LOX IMVI melanoma | SK-MEL-28 melanoma | RXF-631 renal | CCRF-CEM leukemia | HOP-92 NSCLC
> 100 µM: all other assays above

O=C1Cc2c([nH]c3ccccc23)-c2cc(Br)ccc2N1
not listed: UACC-62 melanoma | SR leukemia | XF 498 CNS
> 100 µM: all other assays above

COc1ccc(S(=O)(=O)NNS(C)(=O)=O)cc1OC
not listed: OVCAR-5 ovarian | SK-OV-3 ovarian | HCT-116 colon | SNB-78 CNS | DMS 114 small cell lung | SK-MEL-28 melanoma | OVCAR-3 ovarian | HOP-18 NSCLC | RXF-631 renal | HOP-92 NSCLC
> 100 µM: all other assays above
